Test results reported in ChEMBL document CHEMBL5052849, “Compositions and methods for measuring and inhibiting calpain-5 activity” (2021).
Non-standard residues stand in square brackets, D forms with d. Residues, ends and D or L forms follow the SMILES beside them. Nle = CCCC[C@H](N)C(=O)O

Tests used:
Set-up in all cases: species or system Homo sapiens
[1] = Inhibition of CAPN5 G267S mutant (unknown origin) using DABCYL-TPLKSPPPSPR-EDANS as substrate incubated for 30 mins and measured by High-throughput FRET-based assay
[2] = Inhibition of CAPN5 R243L mutant (unknown origin)
[3] = Inhibition of wild-type CAPN5 (unknown origin)

| IC50 [1] | IC50 [2] | IC50 [3] | IC50 ([2]; read-out: IC50) | SMILES |
| --- | --- | --- | --- | --- |
| 136 nM |  |  |  | CCCC[C@@H](C=O)NC(=O)[C@H](CC(C)C)NC(=O)[C@H](CC(C)C)NC(C)=O (Ac-Leu-Leu-[Nle]-aldehyde) |
|  | Not Active | 165 nM |  | CC(=O)N[C@@H](CC(C)C)C(=O)N[C@@H](CC(C)C)C(=O)N[C@H](C=O)CCCNC(=N)N [LEUPEPTIN] |
| 1200 nM |  | 496 nM | 126 nM | CC[C@H](C)[C@H](NC(=O)[C@H](CCC(=O)O)NC(=O)[C@@H](NC(=O)[C@@H](N)CCCCN)[C@@H](C)CC)C(=O)N[C@H](C(=O)N[C@@H](CCCNC(=N)N)C(=O)N[C@@H](CCCCNC)C(=O)N[C@@H](CCCCNC)C(=O)N1CCC[C@H]1C(=O)N[C@H](C(=O)N[C@@H](Cc1ccccc1)C(=O)N[C@@H](CCCCN)C(=O)N[C@@H](CCCCN)C(=O)N[C@@H](C)C(=O)N[C@H](C(=O)N[C@H](C(=O)O)C(C)C)[C@@H](C)O)[C@@H](C)CC)C(C)C (HELM PEPTIDE1{K.I.E.I.V.R.[CNCCCC[C@H](N[*:1])C(=O)[*:2]].[CNCCCC[C@H](N[*:1])C(=O)[*:2]].P.I.F.K.K.A.T.V}$$$$V2.0) |
| 1100 nM | Not Active | 8.35 nM |  | CCCC[C@@H](C=O)NC(=O)[C@H](CC(C)C)NC(=O)OCc1ccccc1 [CALPEPTIN] |
| 3.6 nM |  | 24000 nM | 29.5 nM | CC[C@H](C)[C@H](NC(=O)[C@H](CCC(=O)O)NC(=O)[C@@H](NC(=O)[C@@H](N)CCCCN)[C@@H](C)CC)C(=O)N[C@H](C(=O)N[C@@H](CCCNC(=N)N)C(=O)N[C@@H](CCCCNC)C(=O)N[C@@H](CCCCN)C(=O)N1CCC[C@H]1C(=O)N[C@H](C(=O)N[C@@H](Cc1ccccc1)C(=O)N[C@@H](CCCCN)C(=O)N[C@@H](CCCCN)C(=O)N[C@@H](C)C(=O)N[C@H](C(=O)N[C@H](C(=O)O)C(C)C)[C@@H](C)O)[C@@H](C)CC)C(C)C (HELM PEPTIDE1{K.I.E.I.V.R.[CNCCCC[C@H](N[*:1])C(=O)[*:2]].K.P.I.F.K.K.A.T.V}$$$$V2.0) |
